Measurements published in ChEMBL document CHEMBL1135071, “Di- and trisubstituted pyrazolo[1,5-a]pyridine derivatives: synthesis, dopamine receptor binding and ligand efficacy” (Bioorg Med Chem Lett, 2002).

How the values were obtained:
D(2) dopamine receptor [1] = target: T1, D(2) dopamine receptor (Homo sapiens, UniProt P14416); assay: In vitro binding affinity at human cloned dopamine receptor D2 (long) stably expressed in CHO cells by [3H]-Spiperone displacement.; assay type: cell-based
D(2) dopamine receptor [2] = target: T1, D(2) dopamine receptor; assay: In vitro binding affinity at human cloned dopamine receptor D2 (short) stably expressed in CHO cells by [3H]spiperone displacement.; assay type: cell-based
D(4) dopamine receptor [3] = target: T2, D(4) dopamine receptor (Homo sapiens, UniProt P21917); assay: In vitro binding affinity at human cloned dopamine receptor D4 stably expressed in CHO cells by [3H]spiperone displacement.; assay type: cell-based
T2 sequence (P21917 whole entry): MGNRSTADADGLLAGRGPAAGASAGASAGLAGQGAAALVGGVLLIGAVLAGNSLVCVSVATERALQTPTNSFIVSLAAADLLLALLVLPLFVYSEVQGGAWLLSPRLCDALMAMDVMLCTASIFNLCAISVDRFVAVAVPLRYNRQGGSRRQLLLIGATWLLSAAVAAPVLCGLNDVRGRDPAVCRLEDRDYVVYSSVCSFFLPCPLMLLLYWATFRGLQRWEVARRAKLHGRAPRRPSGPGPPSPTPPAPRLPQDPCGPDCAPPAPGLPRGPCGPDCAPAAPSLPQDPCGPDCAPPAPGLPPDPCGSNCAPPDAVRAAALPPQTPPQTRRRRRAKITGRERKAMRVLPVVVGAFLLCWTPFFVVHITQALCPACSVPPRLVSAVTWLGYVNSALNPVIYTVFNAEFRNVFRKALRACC

D(3) dopamine receptor = D(3) dopamine receptor (Homo sapiens, UniProt P35462); assay: In vitro binding affinity at human cloned dopamine receptor D3 stably expressed in CHO cells by [3H]spiperone displacement.; assay type: cell-based
[4] = Compound was tested in vitro for its ability to compete with [3H]-ketanserin at 5-hydroxytryptamine 2 receptor in porcine brain homogenate; assay type: tissue-based
[5] = target: T3, D(4) dopamine receptor (Homo sapiens) (UniProt P21917); assay: Intrinsic activity as rate of incorporation of [3H]thymidine in human D4.2 receptor established in mitogenesis assay relative to quinpirole; assay type: functional
T3 sequence (whole entry): T2 sequence (P21917 whole entry)

D(2) dopamine receptor [6] = target: T1, D(2) dopamine receptor; assay: Binding affinity of compound was tested in vitro for its ability to compete with [3H]spiperone radioligand at cloned human Dopamine receptor D2L stably expressed in CHO cells; assay type: cell-based
D(4) dopamine receptor [7] = target: T2, D(4) dopamine receptor; assay: Tested for the effective concentration against human D4.2 receptor in CHO 10001 cells established in mitogenesis assay; assay type: functional, cell-based

Sequence of D(3) dopamine receptor (P35462 whole entry): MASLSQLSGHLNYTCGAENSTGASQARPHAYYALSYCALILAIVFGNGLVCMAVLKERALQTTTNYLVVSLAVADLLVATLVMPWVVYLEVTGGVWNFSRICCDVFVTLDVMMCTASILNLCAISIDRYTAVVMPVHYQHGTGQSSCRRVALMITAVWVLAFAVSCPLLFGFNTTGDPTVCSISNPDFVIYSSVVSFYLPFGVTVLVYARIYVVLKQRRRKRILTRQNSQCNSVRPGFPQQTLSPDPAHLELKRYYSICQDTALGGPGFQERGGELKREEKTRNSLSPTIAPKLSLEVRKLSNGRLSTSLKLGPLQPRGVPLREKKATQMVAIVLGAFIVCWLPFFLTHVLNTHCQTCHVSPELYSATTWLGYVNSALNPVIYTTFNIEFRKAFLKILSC
T1 sequence (P14416 whole entry): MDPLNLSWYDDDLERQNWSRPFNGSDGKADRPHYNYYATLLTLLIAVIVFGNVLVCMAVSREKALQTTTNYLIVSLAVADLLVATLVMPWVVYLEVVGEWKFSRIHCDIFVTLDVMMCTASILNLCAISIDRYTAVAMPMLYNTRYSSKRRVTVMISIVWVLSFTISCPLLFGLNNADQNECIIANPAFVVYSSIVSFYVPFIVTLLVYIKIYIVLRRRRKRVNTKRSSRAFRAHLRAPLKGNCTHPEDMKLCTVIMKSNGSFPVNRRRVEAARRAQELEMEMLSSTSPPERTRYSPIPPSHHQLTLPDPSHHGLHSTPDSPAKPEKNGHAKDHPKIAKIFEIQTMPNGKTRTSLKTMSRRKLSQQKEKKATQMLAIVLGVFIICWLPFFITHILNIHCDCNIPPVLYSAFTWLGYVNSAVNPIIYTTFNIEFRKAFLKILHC

SMILES | Ki (D(2) dopamine receptor [1]) | Ki (D(2) dopamine receptor [2]) | Ki (D(4) dopamine receptor [3]) | Ki (D(3) dopamine receptor) | Ki [4] | Intrinsic activity [5] | Ki (D(2) dopamine receptor [6]) | EC50 (D(4) dopamine receptor [7])
Cc1nn2c(-c3ccc(F)cc3)cccc2c1CN1CCN(c2ccc(Cl)cc2)CC1 | 14 µM | 16 µM | 0.087 µM | 3.8 µM |  |  |  | 
Fc1ccc(-c2cccc3c(CN4CCN(c5ccc(Cl)cc5)CC4)cnn23)cc1 | 15 µM | 15 µM | 0.029 µM | 5.7 µM |  |  |  | 
Clc1ccc(N2CCN(Cc3cnn4c(N5CCN(Cc6ccccc6)CC5)cccc34)CC2)cc1 | 0.64 µM | 0.4 µM | 0.18 µM | 0.41 µM |  |  |  | 
C[Si](C)(C)c1cccc2c(CN3CCN(c4ccc(Cl)cc4)CC3)cnn12 | 3.1 µM | 2.8 µM | 0.0028 µM | 2 µM |  |  |  | 
Cc1nn2c(C#N)cccc2c1CN1CCN(c2ccc(Cl)cc2)CC1 |  | 58 µM | 0.0023 µM | 21 µM | 1 µM | 26% | 59 µM | 0.012 µM
Cc1nn2c(-c3ccccc3)cccc2c1CN1CCN(c2ccc(Cl)cc2)CC1 | 28 µM | 24 µM | 0.037 µM | 3.1 µM |  |  |  | 
Cc1nn2c(N3CCN(Cc4ccccc4)CC3)cccc2c1CN1CCN(c2ccc(Cl)cc2)CC1 | 0.3 µM | 0.12 µM | 0.026 µM | 0.27 µM |  |  |  | 
Clc1ccc(N2CCN(Cc3cnn4c(-c5ccccc5)cccc34)CC2)cc1 | 5.4 µM | 2.8 µM | 0.0076 µM | 0.84 µM |  |  |  | 
C#Cc1cccc2c(CN3CCN(c4ccc(Cl)cc4)CC3)c(C)nn12 | 21 µM | 25 µM | 0.0015 µM | 17 µM |  |  |  | 

The next lines start with the values.

Ki (D(2) dopamine receptor [1]) | Ki (D(2) dopamine receptor [2]) | Ki (D(4) dopamine receptor [3]) | Ki (D(3) dopamine receptor) | Ki [4] | Intrinsic activity [5] | Ki (D(2) dopamine receptor [6]) | EC50 (D(4) dopamine receptor [7]) | SMILES
56 µM | 79 µM | 0.11 µM | > 100 µM |  |  |  |  | OCc1cccn2ncc(CN3CCN(c4ccc(Cl)cc4)CC3)c12
13 µM | 12 µM |  | 9.4 µM |  |  |  |  | Cc1cccn2ncc(CN3CCN(c4ccc(Cl)cc4)CC3)c12
 | 45 µM | 0.0015 µM | 26 µM | 0.18 µM | 31% | 44 µM | 0.0015 µM | N#Cc1cccc2c(CN3CCN(c4ccc(Cl)cc4)CC3)cnn12
3.7 µM | 6.2 µM |  | 4.6 µM |  |  |  |  | C#Cc1cccc2c(CN3CCN(c4ccc(Cl)cc4)CC3)cnn12
4.9 µM | 5 µM |  | 3.8 µM |  |  |  |  | Cc1cccc2c(CN3CCN(c4ccc(Cl)cc4)CC3)cnn12
9.5 µM | 9.2 µM | 0.0026 µM | 5.9 µM |  |  |  |  | O=Cc1cccc2c(CN3CCN(c4ccc(Cl)cc4)CC3)cnn12
28 µM | 22 µM | 0.02 µM | 2.6 µM |  |  |  |  | OCc1ccc2c(CN3CCN(c4ccc(Cl)cc4)CC3)cnn2c1
